Measured values published in patent publication US4751235A, “Anti-atherosclerotic indolizine derivatives” (Sandoz Pharm. Corp., priority 1986, dated 1988).
Counter-ions that a name gives are not always drawn.

How the values were obtained:
[1] = test system: 3 β-hydroxysterol synthesis; test: Test B. In Vivo Cholesterol Biosynthesis Inhibition Test; conditions: Rattus norvegicus, rats, oral administration, read-out: ED50 (dose producing 50% inhibition of 3 β-hydroxysterol synthesis)
Description: Test B. In Vivo Cholesterol Biosynthesis Inhibition Test: This test is also known and is carried out as described on pages 60-61 of said application Ser. No. 06/741,903 and on page 33 of World (PCT) Published Patent Application No. 84/02131, both of which are hereby incorporated by reference as if set forth herein in their entirety.

HMG-CoA reductase = target: T1, HMG-CoA reductase (Rattus norvegicus, UniProt P51639); test: Test A. In Vitro Microsomal Assay of HMG-CoA Reductase Inhibition; type: biochemical; conditions: read-out: IC50 (concentration producing 50% inhibition of HMG-CoA reductase activity)
T1 construct: from tissue; host or cells: microsomes (printed); rat liver by own knowledge of the cited method
T1 sequence (P51639 1-887): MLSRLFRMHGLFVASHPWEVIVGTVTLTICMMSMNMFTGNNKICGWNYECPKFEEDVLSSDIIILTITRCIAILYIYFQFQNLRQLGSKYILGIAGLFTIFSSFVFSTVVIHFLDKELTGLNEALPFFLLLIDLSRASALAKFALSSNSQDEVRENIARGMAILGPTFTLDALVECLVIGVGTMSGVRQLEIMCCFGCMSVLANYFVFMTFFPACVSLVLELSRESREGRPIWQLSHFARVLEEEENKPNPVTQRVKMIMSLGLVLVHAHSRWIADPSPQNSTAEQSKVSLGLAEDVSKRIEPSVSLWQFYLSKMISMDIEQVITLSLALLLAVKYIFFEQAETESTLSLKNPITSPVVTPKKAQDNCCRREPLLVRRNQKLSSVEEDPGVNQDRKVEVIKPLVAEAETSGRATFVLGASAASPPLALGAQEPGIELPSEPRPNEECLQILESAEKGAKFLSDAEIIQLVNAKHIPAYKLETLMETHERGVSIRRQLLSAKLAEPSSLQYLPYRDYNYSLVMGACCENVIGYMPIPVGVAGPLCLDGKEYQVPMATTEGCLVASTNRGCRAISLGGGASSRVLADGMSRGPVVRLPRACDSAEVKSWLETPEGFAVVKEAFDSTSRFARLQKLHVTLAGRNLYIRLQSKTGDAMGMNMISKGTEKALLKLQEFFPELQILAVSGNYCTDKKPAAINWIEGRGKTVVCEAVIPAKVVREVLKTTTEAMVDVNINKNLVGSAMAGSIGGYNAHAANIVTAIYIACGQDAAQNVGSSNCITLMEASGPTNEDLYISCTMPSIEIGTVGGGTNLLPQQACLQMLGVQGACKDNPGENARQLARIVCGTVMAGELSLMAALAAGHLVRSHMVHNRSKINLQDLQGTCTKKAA
Description: Test A. In Vitro Microsomal Assay of HMG-CoA Reductase Inhibition:
This test is known and is carried out as described on pages 59-60 of application Ser. No. 06/741,903 (filed June 6, 1985) and on page 30 of World (PCT) Published Patent Application No. 84/02131 both of which are hereby incorporated by reference as if set forth herein in their entirety. The concentration of the test substance (compound of Formula I) in the assay system is 0.0005-2,000 μmolar. The obtained IC50 is the concentration of the test substance in the assay system observed or calculated to produce a 50% inhibition of HMG-CoA reductase activity.

SMILES | ED50 [1] | IC50 (HMG-CoA reductase)
CC[C@H](C)C(=O)O[C@H]1CCC=C2C=C[C@H](C)[C@H](CC[C@@H]3C[C@@H](O)CC(=O)O3)[C@H]21 [Compactin] | 3.5 mg/kg | –
CC(C)c1c(/C=C/[C@@H](O)C[C@@H](O)CC(=O)O)c(-c2ccc(F)cc2)n2ccccc12 (relative stereo) [Example 2, 7-[3-(4-fluorophenyl)-1-(1-methylethyl)-2-indolizinyl]-3,5,-dihydroxy-6-heptenoic acid, sodium salt (trans)] | – | 11 nM
CC[C@H](C)C(=O)O[C@H]1C[C@@H](C)C=C2C=C[C@H](C)[C@H](CC[C@@H]3C[C@@H](O)CC(=O)O3)[C@H]21 [Mevinolin] | 0.41 mg/kg | –
CCOC(=O)C[C@H](O)C[C@H](O)/C=C/c1c(C(C)C)c2ccccn2c1-c1ccc(F)cc1 (relative stereo) [Example 1, 7-[3-(4-fluorophenyl)-1-(1-methylethyl)-2-indolizinyl]-3,5,-dihydroxy-6-heptenoic acid, ethyl ester (trans)] | 0.05 mg/kg | –
